Data from US20240316023A1, “BENEDIN, PIPERIDINE, 2-BENZHYDRYL-3-HYDROXY-N-METHYL-, HYDROCHLORIDE AND DERIVATIVES THEREOF FOR USE IN TREATING KLEINE-LEVIN SYNDROME” (priority 2021, published 2024).

Molecular target: T1, M1 (h) (antagonist radioligand) (Homo sapiens, UniProt P11229)
T1 construct: CEREP (Eurofins, France), contract panel
T1 sequence (P11229 1-460): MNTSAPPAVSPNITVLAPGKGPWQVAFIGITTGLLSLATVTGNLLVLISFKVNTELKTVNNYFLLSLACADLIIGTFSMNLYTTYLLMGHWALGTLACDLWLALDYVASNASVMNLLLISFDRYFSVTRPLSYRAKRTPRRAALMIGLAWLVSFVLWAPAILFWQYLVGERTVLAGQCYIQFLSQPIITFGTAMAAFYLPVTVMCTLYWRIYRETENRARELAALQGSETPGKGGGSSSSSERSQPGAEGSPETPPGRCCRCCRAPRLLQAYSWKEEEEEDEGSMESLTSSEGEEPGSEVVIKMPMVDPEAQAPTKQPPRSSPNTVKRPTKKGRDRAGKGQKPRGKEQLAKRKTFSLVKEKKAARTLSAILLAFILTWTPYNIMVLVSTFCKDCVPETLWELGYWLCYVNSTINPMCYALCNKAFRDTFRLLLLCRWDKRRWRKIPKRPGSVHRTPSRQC
Test: Radioligand binding panel (Eurofins/CEREP), M1
Details: 10^−5 M; % inhibition of control specific binding; read-out: % Inhibition at 10^−5M Benedin
Procedure: Benedin was tested at 10^−5 M, calculated as a % inhibition of control specific binding of a radioactively labeled ligand specific for each target.
This binding profile panel was broadly defined with roughly an equal number of selective, central and peripheral therapeutically relevant targets, including native animal tissues, radioligands and specific enzymes involved in cell cycle regulation in accordance with Eurofins Standard Operating Procedure.
For radioligand binding experiments, the half maximal inhibitory concentration (IC50) and the half maximal effective concentration (EC50) values were determined (via computer software) by nonlinear regression analysis of the competition curves using Hill equation curve fitting. The inhibition constants (Ki) were calculated using the Cheng-Prusoff equation (Ki=IC50/(1+(L/KD)), where L is the concentration of radioligand in the assay, and KD is the affinity of the radioligand for the receptor.^60
The results are expressed as a % control specific binding ([measured specific binding/control specific binding]×100) and as a % inhibition of control specific binding (100−[(measured specific binding/control specific binding)×100] obtained in the presence of the test compounds. […]

In the case of `CN1CCCC(O)C1C(c1ccccc1)c1ccccc1` (stereo not shown) [Benedin, 2-benzhydryl-3-hydroxy-N-methyl-piperidine], the inhibition at 10 µM is reported as 75%.
